Results on 18 substances are retold here after patent US20120214862A1, “MODULATION OF FACTOR 7 EXPRESSION” (ISIS Pharmaceuticals, Inc., priority 2009, published 2012).

In the oligonucleotide strings, read from the 5' end, every base follows the letter of its sugar. An asterisk marks phosphorothioate; unmarked linkages are phosphodiester. Other units and linkages are bracketed, terminal groups are in braces. A string of capitals states the bases alone. e = 2'-O-(2-methoxyethyl) (MOE); [5mC] = 5-methylcytosine; d = 2'-deoxy (DNA)

For the data set, the system named is human Factor 7 mRNA. The data set can be described thus: Antisense inhibition of human Factor 7 mRNA in HepB3 cells, lipofectin, 50 nM, real-time RT-PCR. It is filed as cell-based. The conditions noted are these: for % Inhibition (human Factor 7 mRNA): 50 nM, ~24 h. The method in brief: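 Seeding density was 4,000 cells per well. Following roughly 24 hours of oligonucleotide treatment, RNA was extracted and Factor 7 message quantified using the RTS 2927 primer probe set. Levels were corrected for RIBOGREEN® total RNA and expressed against untreated controls.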
On the technique in general: Real-time PCR tracks product formation cycle by cycle.

The mark [1] stands for this setting: HepB3 cells, gapmers targeted to nucleobases 11830 to 11869 of SEQ ID NO: 1 (Table 9).
Setting [2] is: HepB3 cells, lipofectin, 50 nM antisense oligonucleotide, approximately 24 hours, primer probe set RTS 2927, relative to untreated control.
The mark [3] stands for this setting: Example 4, HepB3 cells, lipofectin, relative to untreated control.
Where [4] appears, read: HepB3 cells, gapmers targeted to nucleobases 14707 to 14732 of SEQ ID NO: 1 (Table 11).
Where [5] appears, read: Example 1, HepB3 cells, lipofectin, relative to untreated control cells.

As for “422154 (antisense eT*e[5mC]*eA*dG*dG*dG*d[5mC]*dT*dG*dG*dT*dT*dT*dT*dG*dG*dA*eG*eG*eA) [compound 422154]”, the “% Inhibition of human Factor 7 mRNA levels” value under setting [1] is 31%.

As to “416500 (antisense e[5mC]*eT*eG*eA*eA*d[5mC]*dA*d[5mC]*d[5mC]*d[5mC]*d[5mC]*dA*dG*d[5mC]*dT*eG*eA*eG*eA*eG) [compound 416500]”, the “% Inhibition of human Factor 7 mRNA levels” value under setting [2] amounted to 1%.

On to “422267 (antisense eG*e[5mC]*dG*d[5mC]*dG*dG*dA*dA*dG*dA*dA*dG*dG*dG*dA*e[5mC]*eG*eG*eA*eA) [compound 422267]”, for which, under setting [3], the “% Inhibition (human Factor 7 mRNA)” value was found to be 38%.

As for “416492 (antisense eG*eG*eA*eT*e[5mC]*dA*dT*dT*d[5mC]*dT*dG*dG*d[5mC]*d[5mC]*d[5mC]*eT*eG*eA*eG*e[5mC]) [compound 416492]”, the “% Inhibition of human Factor 7 mRNA levels” value under setting [2] was 13%.

As for “422281 (antisense eG*e[5mC]*dA*dG*d[5mC]*d[5mC]*dT*dG*dA*dG*dG*d[5mC]*d[5mC]*dA*dG*e[5mC]*eA*eG*eA*eT) [compound 422281]”, the “% Inhibition of human Factor 7 mRNA levels” value under setting [4] stood at 57%.

Turning to “407962 (antisense eT*eT*eG*eG*eA*dA*dG*d[5mC]*dA*dG*d[5mC]*d[5mC]*d[5mC]*dA*d[5mC]*eG*eG*e[5mC]*eT*eG) [compound 407962]”, the “% Inhibition (human Factor 7 mRNA)” value under setting [5] is reported as 41%.

On to “422222 (antisense eA*eG*e[5mC]*d[5mC]*d[5mC]*dG*dA*dG*dT*dT*d[5mC]*dT*dG*d[5mC]*dA*dG*dG*eA*eG*e[5mC]) [compound 422222]”, for which the “% Inhibition of human Factor 7 mRNA levels” value (HepB3 cells, gapmers (5-10-5, 3-14-3, 2-13-5 MOE) targeted to nucleobases 4868 to 4899 of SEQ ID NO: 1) is 55%.

On to “407942 (antisense e[5mC]*eA*e[5mC]*eA*eG*dG*dT*dG*dT*dG*d[5mC]*dG*dG*dA*dG*eG*eA*eG*eA*e[5mC]) [compound 407942]”, for which, under setting [5], the “% Inhibition (human Factor 7 mRNA)” value was 41%.

On to “422085 (antisense eG*e[5mC]*eA*eT*eG*dG*dT*dG*dA*dT*dG*d[5mC]*dT*dT*d[5mC]*eT*eG*eA*eA*eT) [compound 422085]”, for which the “% Inhibition of human Factor 7 mRNA levels” value (HepB3 cells, gapmers targeted to nucleobases 15188 to 15211 of SEQ ID NO: 1 (Table 13)) is 70%.

In the case of “407653 (antisense eA*eA*eT*eA*eT*d[5mC]*dA*dT*dT*dG*dA*d[5mC]*dA*dA*dG*eG*eG*e[5mC]*eT*eG) [compound 407653]”, the “% Inhibition (human Factor 7 mRNA)” value under setting [5] is reported as 21%.

“422205 (antisense eA*eG*e[5mC]*dA*dG*d[5mC]*d[5mC]*dT*dG*dA*dG*dG*d[5mC]*d[5mC]*dA*dG*d[5mC]*eA*eG*eA) [compound 422205]”: the “% Inhibition of human Factor 7 mRNA levels” value under setting [4] came to 63%.

Turning to “422275 (antisense eG*eT*dT*dA*d[5mC]*dT*dG*dA*dG*d[5mC]*dG*d[5mC]*dG*dG*dA*eA*eG*eA*eA*eG) [compound 422275]”, the “% Inhibition (human Factor 7 mRNA)” value under setting [3] turned out to be 42%.

For “422212 (antisense eG*eA*e[5mC]*dA*dG*d[5mC]*dA*d[5mC]*dA*d[5mC]*dA*dT*dG*dG*dA*dG*dT*e[5mC]*eA*eG) [compound 422212]”, the “% Inhibition (human Factor 7 mRNA)” value (Example 6 microwalk, nucleobases 15098 to 15122 of SEQ ID NO: 1, HepB3, lipofectin) was 30%.

For the substance “416544 (antisense eA*eT*e[5mC]*e[5mC]*e[5mC]*dA*dT*dT*dT*dT*d[5mC]*d[5mC]*d[5mC]*dA*dG*eG*eA*eG*e[5mC]*e[5mC]) [compound 416544]”, under setting [2], the “% Inhibition of human Factor 7 mRNA levels” value was found to be 58%.

Consider “416487 (antisense eG*e[5mC]*eA*eG*eG*dT*dG*d[5mC]*dT*d[5mC]*d[5mC]*d[5mC]*dA*dG*dG*eG*eT*e[5mC]*eT*e[5mC]) [compound 416487]”, for which the “% Inhibition of human Factor 7 mRNA levels” value under setting [2] was 39%.

In the case of “416515 (antisense eT*eA*eG*eG*e[5mC]*dA*dT*dG*dA*d[5mC]*d[5mC]*dA*dT*d[5mC]*d[5mC]*eT*e[5mC]*eA*eA*eT) [compound 416515]”, the “% Inhibition of human Factor 7 mRNA levels” value under setting [2] is given as 39%.

For “422098 (antisense eG*eG*eA*eG*eA*d[5mC]*dA*dA*dT*dG*dG*dT*d[5mC]*dA*dG*eG*eG*e[5mC]*eT*eG) [compound 422098]”, under setting [1], the “% Inhibition of human Factor 7 mRNA levels” value is recorded as 53%.

Consider “407901 (antisense eT*eG*eG*eT*eG*dT*dT*dG*dA*dT*d[5mC]*dA*dG*dG*dG*eT*e[5mC]*e[5mC]*e[5mC]*e[5mC]) [compound 407901]”, for which, under setting [5], the “% Inhibition (human Factor 7 mRNA)” value was determined as 89%.
